In patent US20030157670A1 (priority 2002, published 2003):

Assays:
[1] = tested on: capsaicin decomposing/synthesizing enzyme (purified enzyme from Streptomyces mobaraensis IFO13819); assay: Synthesis of capsaicin analogs from vanillylamine and fatty acids with the enzyme of the invention; assay type: biochemical; settings: vanillylamine hydrochloride 10 mM, fatty acid 100 mM, 30 U enzyme, water/n-hexane, 37° C., 8 days, 0.5 mM CoCl2
Experimental: Next, capsaicin analogs were synthesized by using the capsaicin decomposing/synthesizing enzyme (purified enzyme from Streptomyces mobaraensis IFO13819) according to the present invention.
(§1) The reaction temperature was 37° C.
(§2) As a comparative example, aminoacylase was used. The resulting capsaicin analogs were quantitatively measured by the HPLC analysis of the hexane phases.

[2] = tested on: aminoacylase; assay: Synthesis of capsaicin analogs from vanillylamine and fatty acids with aminoacylase (comparative example); assay type: biochemical; settings: vanillylamine hydrochloride 10 mM, fatty acid 100 mM, water/n-hexane, 37° C., 8 days, 0.5 mM CoCl2
Experimental: as §1, §2

[3] = tested on: capsaicin decomposing/synthesizing enzyme; assay type: biochemical, Streptomyces mobaraensis IFO 13819
[4] = tested on: capsaicin decomposing/synthesizing enzyme (purified enzyme); assay type: biochemical, Streptomyces mobaraensis IFO 13819

| SMILES | Synthesis of capsaicin analogs, Capsaicin decomposing synthesizing enzyme of the invention [1] [mM] | Synthesis of capsaicin analogs, Aminocylase [2] [mM] | residual activity, cobalt ions added versus not added [3] | effect on capsaicin hydrolysis activity of the purified enzyme [4] |
| --- | --- | --- | --- | --- |
| CCCCCCCCCCCC(=O)O [Lauric acid] | 1.25 | 0.051 | – | – |
| CCCCCCCCCCCCCC(=O)O [Myristic acid] | 0.24 | – | – | – |
| [Cl-].[Cl-].[Co+2] [CoCl2] | – | – | higher residual activity | enhanced |
